Assay results taken from publication PMC6681393, “Intra-Nasally Administered Oligopeptide Lunasin Acts as a Possible Anti-Psychotic Agent in Mice Models” (Medicina, 2019).
Entries after “also recorded” stand apart in the source; their conditions may differ.

What was measured:
[1] = tested on: amphetamine-induced hyperlocomotion in ICR mice; assay: Open field locomotor activity, amphetamine-induced hyperlocomotion; assay type: in vivo, male albino ICR mice; conditions: amphetamine 3 mg/kg i.p.; p = 0.0008 vs control; n = 7–8
[2] = tested on: brain monoamine levels, amphetamine-treated mice; assay: Brain monoamines and metabolites, amphetamine-treated mice (UHPLC-TOF-MS); assay type: in vivo, male albino ICR mice; conditions: amphetamine 3 mg/kg i.p.
[3] = tested on: DOI-induced hyperlocomotion in ICR mice; assay: Open field locomotor activity, DOI-induced hyperlocomotion; assay type: in vivo, male albino ICR mice; conditions: DOI 3 mg/kg i.p.; p = 0.0033 vs control; n = 7–8
[4] = tested on: brain monoamine levels, DOI-treated mice; assay: Brain monoamines and metabolites, DOI-treated mice (UHPLC-TOF-MS); assay type: in vivo, male albino ICR mice; conditions: DOI 3 mg/kg i.p.
[5] = tested on: 5-HT2A receptor; conditions: cited from earlier work
Method: (§1) The aims of the present studies were: to test whether lunasin would show an influence on the dopaminergic system after intranasal administration, and to examine the effect(s) of lunasin on serotonin and glutamatergic systems, which could play an essential role in antipsychoti ... || The binding assay was performed by Eurofins Cerep (France) according to Bryant et al., 1996 [15]. Briefly, the binding of lunasin to 5-HT2A and 5-HT2C receptors was estimated on its ability to displace the specific binding of [^125I]DOI on cell membrane suspensions of HEK-293 cells expressing human recombinant 5-HT2A and 5-HT2C receptors. The radioligand [^125I]DOI has high affinity for 5-HT2A (Kd: 0.3 nM) and 5-HT2C (Kd: 0.9 nM) receptors. Lunasin was tested at concentrations of 1, 10 and 100 µM. The results were expressed as a percent of radioligand specific binding (n = 2).

[6] = tested on: 5-HT2C receptor; conditions: cited from earlier work
Method: as §1

[7] = tested on: hyper-locomotion; conditions: published data; cited from earlier work
Method: The selected DOI dose in our behavioural studies was 3 mg/kg, which according to published data, corresponds to the dose range (0.625-5.0 mg/kg) that induces hyper-locomotion. […] These altered parameters ...

[8] = tested on: PCP-induced hyperlocomotion in ICR mice; assay: Open field locomotor activity, phencyclidine-induced hyperlocomotion; assay type: in vivo, male albino ICR mice; conditions: PCP 5 mg/kg i.p.; p < 0.0001 vs control; n = 7–8
[9] = comparison for lunasin, abstract, source not printed there
[10] = radioligand affinity quoted in method, Eurofins Cerep, ref Bryant et al., 1996 [15]

Compound: C[C@H](N)Cc1ccccc1 [Amphetamine, d-amphetamine, reference compound]
- increase in total walked distance versus control [1]: approximately 2 -fold
- brain DOPAC concentration [2]: Neither lunasin per se nor amphetamine changed the DOPAC concentration
- brain 5-HIAA level ([2]; p < 0.0001): increased brain serotonin and its metabolite 5-HIAA levels
- brain dopamine level ([2]; p < 0.0001): markedly increased the dopamine level
- brain noradrenaline level ([2]; p < 0.0001): augmented by amphetamine
- brain serotonin level ([2]; p < 0.0001): increased brain serotonin and its metabolite 5-HIAA levels
- brain HVA level ([2]; p = 0.0079): increased by amphetamine

Compound: COc1cc(CC(C)N)c(OC)cc1I (centres unmarked) [DOI, 1-(2,5-dimethoxy-4-iodophenyl)-2-aminopropane, reference compound]
- effect on locomotion versus control [3]: induced hyperactivity
- brain 5-HIAA level [4]: up-regulated levels of serotonin and 5-HIAA; also recorded: considerable elevation of brain levels of serotonin and its metabolite 5-HIAA
- brain dopamine concentration [4]: did not change dopamine brain concentrations; also recorded: did not change the dopamine concentration
- brain serotonin level [4]: up-regulated levels of serotonin and 5-HIAA; also recorded: considerable elevation of brain levels of serotonin and its metabolite 5-HIAA
- brain DOPAC concentration ([4]; p < 0.001): elevated; also recorded: increasing DOPAC levels
- brain noradrenaline level ([4]; p < 0.05): decreased by DOI treatment; also recorded: lowered those of HVA and noradrenaline
- brain HVA level ([4]; p = 0.0022): decreased by DOI treatment; also recorded: lowered those of HVA and noradrenaline
- receptor affinity, concentration range [5, 9]: nM concentrations
- receptor affinity, concentration range [6, 9]: nM concentrations
- dose range that induces hyper-locomotion [7]: 0.625 to 5.0 mg/kg

Compound: Cl.c1ccc(C2(N3CCCCC3)CCCCC2)cc1 [PCP, 1-(1-phenylcyclohexyl)piperidine hydrochloride, reference compound]
- effect on locomotion versus control [8]: induced hyperlocomotion

Compound: COc1cc(CC(C)N)c(OC)cc1I (centres unmarked) [[125I]DOI]
- Kd [5, 10]: 0.3 nM
- Kd [6, 10]: 0.9 nM
